Assay results taken from patent publication US10300155B2, “Alpha-synuclein ligands” (Washington University, priority 2015, dated 2019).
Several values for one entry are separate records, joined by “and”; a condition that tells them apart may be missing. Equal values may be shown once. Read-outs that look alike come from different tables or passages of the source.

Biological target: T1, α-synuclein fibrils (Homo sapiens, UniProt P37840)
T1 construct: made in house; host or cells: E. coli BL21(DE3)RIL
Test: ThT competitive assay for α-synuclein fibrils (Table 1)
Type: binding
Conditions: for EC50: α-synuclein fibrils
Description: Upon binding to amyloid fibrils, a peak at approximately 440 nm becomes dominant with the fluorescent emission maximum shifted to 480 nm. This is accompanied by a strong enhancement of the fluorescence.
α-Synuclein recombinant protein was produced in E. coli. […] Freshly transformed BL21 colonies were inoculated into 2 L baffled flasks containing 250 mL sterilized TB (1.2% bactotryptone, 2.4% yeast extract, 0.4% glycerol, 0.17 M KH2PO4, 0.72 M K2HPO4) with 50 μg/ml ampicillin, and incubated overnight at 37° C. with shaking.
To determine the concentration of fibrils, the reaction mixture (100 μL) was centrifuged at 18,000×g for 10 minutes to separate fibrils from monomer. The α-synuclein monomer and other soluble proteins in the supernatant were removed, and the fibril pellet was resuspended in 100 μL solution of Tris-HCl (20 mM) and NaCl (100 mM). This fibril suspension was used in a bicinchoninic acid (BCA) protein assay along with a bovine serum albumin (BSA) standard curve to determine the concentration of fibrils in the 72 hour fibril reaction mixture.
To prepare the fibrils for performing binding assays, the fibril reaction mixture prepared above was centrifuged at 18,000×g for 10 minutes.
Once the ThT-α-synuclein saturation binding curve and dissociation constant (Kd) were determined the competitive assay for determining the binding affinity of various test compounds was conducted. […] The mixture was incubated at room temperature for 60 minutes on the shaking plate. The fluorescent intensity for each cell was measured by the fluorescence reader at λex and λem. The Ki value for each compound was calculated by the corresponding inhibition curve.
The Ki values were derived from the EC50 values using the Cheng-Prusoff equation: Ki=EC50/(1+[radioligand]/Kd). See FIGS. 17.1-31.2 for the inhibition curves for each compound in the ThioT competitive binding assay.

[1] = average, read-out: Ki (nM) α-syn (avg)
[2] = average, read-out: EC50 (nM) EC50 (avg)
[3] = individual determinations, read-out: Ki (nM) α-syn
[4] = individual determinations, read-out: EC50 (nM) EC50

COc1ccc2nc(/C=C/c3ccnc(F)c3)ccc2c1 [TZ-36-26-2T]
Ki [1]: 434 nM
EC50 [2]: 1140 nM

COc1ccc2nc(/C=C/c3ccsc3)ccc2c1 [TZ-36-30]
Ki [1]: 122 nM
Ki [3]: 122 nM
EC50 [2]: 320 nM
EC50 [4]: 320 nM

COc1ccc2nc(/C=C/c3ccccn3)ccc2c1 [TZ-36-34]
Ki [1]: 193 nM
Ki [3]: 193 nM
EC50 [2]: 504 nM
EC50 [4]: 504 nM

COc1ccc2nc(/C=C/c3ccc(Cl)nc3)ccc2c1 [TZ-36-38]
Ki [1]: 39 nM
Ki [3]: 31 nM and 47 nM
EC50 [2]: 101 nM
EC50 [4]: 80 nM and 122 nM

COc1ccc2nc(/C=C/c3cccnc3Cl)ccc2c1 [TZ-36-40]
Ki [1]: 62 nM
Ki [3]: 62 nM
EC50 [2]: 163 nM
EC50 [4]: 163 nM

COc1ccc2nc(/C=C/c3ccnc(Cl)c3)ccc2c1 [TZ-36-42]
Ki [1]: 54 nM
Ki [3]: 52 nM and 56 nM
EC50 [2]: 140 nM
EC50 [4]: 136 nM and 145 nM

COc1ccc2nc(/C=C/c3cccnc3C)ccc2c1 [TZ-36-44]
Ki [1]: 289 nM
Ki [3]: 289 nM
EC50 [2]: 755 nM
EC50 [4]: 755 nM
